Legend:
[1] = Metabolite profiling of plasma and feces, oral dose; assay type: in vivo, rats; conditions: oral 75 mg/kg
Description: Radiolabeled components in plasma and feces extracts were profiled and identified using radio-high performance liquid chromatography (HPLC) and high performance liquid chromatography/mass spectrometry (HPLC/MS) methods.

[2] = tested on: 3 DNMTs and 9 other epigenetic enzymes; assay: Enzyme kinetic study of epigenetic enzymes; assay type: biochemical; conditions: for effect on enzymatic activities: controls
[3] = Excretion mass balance, oral dose; assay type: in vivo; conditions: oral (gavage) 75 mg/kg, rats
[4] = Excretion mass balance, intravenous dose; assay type: in vivo, male Sprague Dawley rats; conditions: over 168 hours, intravenous 10 mg/kg, rats
Description: (§1) The objectives of this study were to determine the plasma pharmacokinetics of [4-^14C]-25HC3S-derived radioactivity in male Sprague Dawley rats, determine the routes of elimination and excretion mass balance of [4-^14C]-25HC3S-derived radioactivity in male Sprague Dawley rats, determine the tissue distribution and tissue pharmacokinetics of [4-^14C]-25HC3S-derived radioactivity using quantitative whole body autoradiography methods in male Sprague Dawley and Long Evans rats following a single intravenous (bolus) dose, and to provide plasma, urine, and fecal homogenate samples for metabolite profiling of [4-^14C]-25HC3S-derived radioactivity.
(§2) Nine male Sprague Dawley rats (Group 1) were designated for the pharmacokinetic phase, 3 male Sprague Dawley rats (Group 2) for the excretion mass balance phase, and 7 male Sprague Dawley rats (Group 3) and 9 male Long Evans rats (Group 4) for the tissue distribution phase. All animals received a single intravenous dose of [^14C]-25HC3S at 10 mg/kg and a target radioactivity of 225 pCi/kg. […] Following blood collection, animals were euthanized by CO2 inhalation and carcasses frozen in a dry ice/hexane bath for processing by quantitative whole body autoradiography. Whole blood, plasma, urine, feces, cage rinse, and cage wash were analyzed for total radioactivity by liquid scintillation counting.

[5] = Plasma pharmacokinetics of radioactivity, intravenous dose; assay type: in vivo, male Sprague Dawley rats; conditions: single intravenous (bolus) dose 10 mg/kg, rats
Description: as §1
as §2, with “[…]. Blood samples were collected from all Group 1 animals at approximately 0.083, 0.25, 0.5, 1, 2, 4, 8, 12, 24, 48, and 72 hours post-dose. Urine and feces were collected from all Group 2 animals periodically through 168 hours post-dose.” for “pCi/kg.”

[6] = Tissue distribution by quantitative whole body autoradiography, oral dose; assay type: in vivo, male Sprague Dawley rats
[7] = Plasma pharmacokinetics of radioactivity, oral dose; assay type: in vivo; conditions: single oral (gavage) dose 75 mg/kg, rats
[8] = Tissue distribution by quantitative whole body autoradiography, intravenous dose; assay type: in vivo, male Sprague Dawley rats; conditions: intravenous 10 mg/kg
Method: as §2, with “[…] Blood samples were collected from all Group 1” for “All”, “animals” for “animals received a single intravenous dose of [^14C]-25HC3S”, “approximately 0.083, 0.25, 0.5, 1, 2, 4, 8, 12, 24, 48,” for “10 mg/kg”, “72 hours post-dose. Urine and feces were collected from all Group 2 animals periodically through 168 hours post-dose.” for “a target radioactivity of 225 pCi/kg.”

[9] = Tissue distribution by quantitative whole body autoradiography, intravenous dose, pigmented rats; assay type: in vivo, male Long Evans rats; conditions: intravenous 10 mg/kg
Description: as §1, §2

[10] = calculated using AUClast, oral 75 mg/kg

C[C@H](CCCC(C)(C)O)[C@H]1CC[C@H]2[C@@H]3CC=C4C[C@@H](O)CC[C@]4(C)[C@H]3CC[C@]12C [25HC, 25-Hydroxycholesterol, reference compound]
amount in feces, % of total dose ([1]; 0 to 168 hours post-dose pools): 1.9 % of total dose | relative observed intensity (ROI) in plasma ([1]; 2 hour post-dose plasma): 37%

C[C@@H](CO)CCC[C@@H](C)[C@H]1CC[C@H]2[C@@H]3CC=C4C[C@@H](O)CC[C@]4(C)[C@H]3CC[C@]12C [27HC, 27-Hydroxycholesterol]
effect on other enzymes (than DNMT-1) [2]: no effect

CC(C)CCC[C@@H](C)[C@H]1CC[C@H]2[C@@H]3CC=C4C[C@@H](OS(=O)(=O)O)CC[C@]4(C)[C@H]3CC[C@]12C [Xol3S, 5-cholesten-3β-ol, 3-sulfate]
effect on enzymatic activities [2]: did not significantly affect

CC(C)CCC[C@@H](C)[C@H]1CC[C@H]2[C@@H]3CC=C4C[C@@H](O)CC[C@]4(C)[C@H]3CC[C@]12C [Xol, Cholesterol]
effect on enzymatic activities [2]: did not significantly affect

C[C@H](CCCC(C)(C)O)[C@H]1CC[C@H]2[C@@H]3CC=C4[14CH2][C@@H](OS(=O)(=O)O)CC[C@]4(C)[C@H]3CC[C@]12C [[4-^14C]-25HC3S]
dose recovered in urine, feces, and cage rinse [3]: approximately 94.5% | recovered radioactivity in feces [3]: 94.2% | dose recovered in urine, feces, and cage rinse [4]: approximately 100.2% | recovered radioactivity in feces [4]: 83.0% | terminal elimination phase T1/2, plasma ([5]; PK phase): 26.6 h | mean plasma C0 ([5]; total radioactivity): 25,900 ng-equiv./g | plasma AUClast ([5]; total radioactivity): 27,900 h*ng-equiv./g | tissue:plasma ratio, adrenal gland [6, 10]: 6.64 | tissue:plasma ratio, liver [6, 10]: 6.96 | tissue:plasma ratio, small intestine (wall) [6, 10]: 15.4 | Skin, thymus, prostate, and pituitary tissue concentrations ([6]; oral 75 mg/kg): < 3000 ng equiv./g | tissue Tmax ([6]; oral 75 mg/kg): ≤ 6 hours post-dose | tissue distribution of compound and/or metabolites ([6]; oral 75 mg/kg, detected in all tissues except the eye (lens)): broadly distributed | plasma:whole blood AUClast ratio ([6]; oral (gavage) 75 mg/kg): 1.12 | whole blood AUClast ([6]; oral (gavage) 75 mg/kg): 127,000 h-ng equiv./g | plasma AUClast [7]: 96,400 h-ng equiv./g | terminal elimination phase T1/2 [7]: 27.3 h | tissue:plasma ratio, liver ([8]; calculated using AUClast): 11.4 | tissue:plasma ratio, small intestine (wall) ([8]; calculated using AUClast): 7.44 | plasma:whole blood AUClast ratio ([8]; Group 3): 0.79 | whole blood AUClast ([8]; Group 3): 25,200 h*ng-equiv./g | maximum plasma concentration ([8]; QWBA phase): 12,400 ng-equiv./g | AUClast in the liver ([8]; derived radioactivity): ≤ 364,000 h-ng/g | tissue distribution of compound and/or metabolites ([8]; detected in all tissues except the eye (lens)): broadly distributed | plasma or whole blood concentrations versus Sprague Dawley rats ([9]; first 168 hours post-dose): no substantial difference | binding to pigmented or non-pigmented skin or the uveal tract [9]: no difference

desmosterol sulfate
detection in plasma or feces samples ([1]; radiolabeled): not found

— patent US20230233580A1, “USE OF OXYGENATED CHOLESTEROL SULFATES FOR CANCERS AND NON-CANCEROUS TRANSFORMATIONS RELATED TO EPSTEIN-BARR VIRUS” (priority 2020, published 2023)
